{"source": "paper PMC4835877", "about": "“HM71224, a novel Bruton’s tyrosine kinase inhibitor, suppresses B cell and monocyte activation and ameliorates arthritis in a mouse model: a potential drug for rheumatoid arthritis” (Arthritis Research & Therapy, 2016)", "key": {"[1]": {"test_system": "human plasmacytoid dendritic cells", "assay": "Cytokine production by human PDCs stimulated with CpG ODN or LPS (ELISA)", "type": "cell-based", "conditions": "CpG ODN (TLR9 agonist), 1 μM, 48 h", "experimental": "Human monocytes were stimulated with heat-inactivated ICs at 37 °C for 30 minutes in the presence of increasing concentrations of HM71224. Human PDCs were stimulated with lipopolysaccharide (LPS) or CpG ODN 2006 (ThermoFisher Scientific) for 48 h in the absence or presence of HM71224 (1 μM). The production of tumor necrosis factor (TNF)-α, interleukin (IL)-1β, and IL-6 was then measured using a commercial ELISA (R&D Systems). […] The levels of the indicated cytokines in the culture supernatant were then measured by ELISA at 5 h post stimulation. […] The levels of the indicated cytokines in the culture supernatant were then measured by ELISA at 48 h post stimulation.*P < 0.05, **P < 0.01, and ***P < 0.001 vs. no treatment. LPS lipopolysaccharide"}, "[2]": {"molecular_target": "BTK (Homo sapiens, UniProt Q06187)", "sequence (Q06187 whole entry)": "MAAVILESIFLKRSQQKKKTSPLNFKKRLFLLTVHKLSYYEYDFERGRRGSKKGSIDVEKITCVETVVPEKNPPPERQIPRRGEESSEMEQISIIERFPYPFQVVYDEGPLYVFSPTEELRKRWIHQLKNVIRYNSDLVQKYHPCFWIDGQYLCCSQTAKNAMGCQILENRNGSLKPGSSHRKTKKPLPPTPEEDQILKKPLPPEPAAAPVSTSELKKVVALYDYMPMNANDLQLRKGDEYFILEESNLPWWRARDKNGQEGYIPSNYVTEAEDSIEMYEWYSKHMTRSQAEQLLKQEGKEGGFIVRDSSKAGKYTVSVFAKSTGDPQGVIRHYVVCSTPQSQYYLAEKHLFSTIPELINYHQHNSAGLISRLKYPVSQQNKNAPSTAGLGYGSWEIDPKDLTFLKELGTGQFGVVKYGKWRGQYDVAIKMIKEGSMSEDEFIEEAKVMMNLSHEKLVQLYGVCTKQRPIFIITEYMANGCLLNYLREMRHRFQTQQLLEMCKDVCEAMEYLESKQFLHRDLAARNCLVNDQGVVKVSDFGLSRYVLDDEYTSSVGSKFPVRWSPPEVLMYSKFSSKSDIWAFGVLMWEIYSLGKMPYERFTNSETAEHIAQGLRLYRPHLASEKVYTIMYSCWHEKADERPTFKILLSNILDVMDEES", "assay": "Kinome Binding Tree Spot analysis, Scan Max (DiscoveRx)", "set-up": "purchased DiscoveRx (Scan Max panel)", "conditions": "concentration of 2 μM"}, "[3]": {"test_system": "murine bone marrow-derived macrophages", "assay": "Osteoclast formation from murine BMMs (TRAP staining)", "type": "cell-based, mouse", "conditions": "M-CSF and RANKL, 4 days", "experimental": "To drive osteoclast formation from bone morrow cells, BMMs (4 × 10^4 per well) were stimulated with 30 ng/mL M-CSF and 100 ng/mL RANKL in the presence of increasing concentrations of HM71224 for 4 days. TRAP+ cells with three or more nuclei were counted as osteoclasts."}}}
{"smiles": "C=CC(=O)Nc1cccc(Oc2nc(Nc3ccc(N4CCN(C)CC4)cc3)nc3ccoc23)c1", "note": "[HM71224]", "values": [{"measurement": "CpG-mediated production of TNF-α and IL-6", "setting": "[1]", "result": "inhibited CpG-mediated cytokine production"}, {"measurement": "Kinome binding selectivity", "setting": "[2]", "result": "selectively bound to Btk"}, {"measurement": "Osteoclast formation from murine BMMs", "setting": "[3]", "result": "inhibited osteoclast formation from murine BMMs"}]}
